Test results published in US6548544B1, “Method of treatment of priapism without raising systemic blood pressure” (The National University of Singapore, priority 1999, dated 2003).

Columns and labels:
[1] = tested on: human corpora cavernosa muscle; experiment: Contractile response of human corpus cavernosum smooth muscle in vitro; assay type: cell-based
Description: FIG. 2 is a graphical representation showing contractile response of prostaglandin A2 on human corpus cavernosum smooth muscle.
Prostaglandin A2 is 8.2 times stronger than noradrenaline in contracting human corpora cavernosa muscle in vitro and 500, 2.5 and 50 times stronger than dopamine, adrenaline and aramine, respectively (FIG. 2).

[2] = parameters: species or system baboon; details: in vivo
Method: (§1) Six male baboons weighing between 8 kg and 12 kg were used for the experiment. The animals were sedated with ketamine and anaesthetised with intravenous pentobarbitone injected through an indwelling venous catheter. Drugs were injected into the right corpora cavornosa at the mid-third of the shaft using a 29G needle and 1 ml syringe. Blood pressure was monitored through a cannulated femoral artery connected to the transducer. A measuring tape was used to measure penile length visually from a marked point at the base of the penis to the tip of urethral orifice. Changes in penile length were recorded for a period of 100 min after injection.
(§2) In baboons, intracavernous injection of papaverine (40 mg) or phenoxybenzamine (3 mg) produced a 130% increase in penile length within […] after administration (Table 1). This increase in penile length lasted for more than 100 min. This was repeated one week later and when prostaglandin A2 was injected intracavernosally at the maximum rigidity 20 min after the drug administration, the latter produced a marked reduction in penile length and within 40 min of injection, the penile size reduced to the original state of rugosity (Table 1). The fall in systemic blood pressure produced by prostaglandin A2 ranged from 8 to 16 mmHg. Each value reported in Table 1 represents the mean of six experiments.

[3] = tested on: cavernous nerve stimulation-induced intracavernous pressure increase; experiment: Intracavernous pressure (ICP) response to cavernous nerve stimulation, in vivo rat model; parameters: species or system Sprague Dawley rats; details: for Cavernous pressure (mmHg) recording: nerve stimulation
Method: The cavernous nerve is a relatively well-defined nerve that exits from the major pelvic ganglion and carries a large component of the autonomic input to the penis. Through electrical stimulation of this nerve, the changes in the peripheral neural mechanisms controlling penile erection can be observed in the animal model. The responses are recorded as concomitant alterations in the ICP following stimulation of this nerve branch.

[4] = rat, in vivo
Method: METHOD: Male Sprague Dawley rats (500-700 g) were anaesthetized with sodium pentobarbital (45 mg/kg, intraperitoneal) and the trachea intubated (14G jelco catheter) for respiration. The left external jugular vein and the right common carotid artery were cannulated (PE 50 tubing) for drug infusion and blood pressure monitoring respectively. Through a lower median abdominal incision, the lateral prostate was exposed and the fascia around the cavernous nerve separated through fine dissection. The exposed nerve was suspended on bipolar hook electrode for stimulation. Through transverse perineal incision, a 27G needle was inserted into the penile crus for pressure recording. Systemic and intracavernous pressures were measured by transducers (Ugo Basile) and recorded with MacLab analogue-digital converter (AD instruments). To initiate the experiment, the cavernous nerve was stimulated with square wave pulses of 1 millisecond duration at 20 Hertz and 2 volts with the resting ICP recording.

[5] = tested on: prolonged erection induced by 60 mg of papaverine; experiment: Effect on papaverine-induced prolonged erection in human patients and volunteers; assay type: in vivo; details: for Mean Decrease in Length of Turgid Penis %: erection induced by 60 mg papaverine
Method: In human patients and human volunteers, intracavernous injection of prostaglandin A2 (150 μg) was tested on prolonged erection (lasting more than 4 hours) induced by 60 mg of papaverine.
This was corrected by an additional injection of prostaglandin A2 (100 μg). The fall in mean systemic blood pressure ranged from 7 to 10 mmHg (Table 2).

[6] = tested on: Pharmacologically Induced Prolonged Erection (Pipe); experiment: Effect on papaverine- and phenoxybenzamine-induced prolonged erection (PIPE), penile length, baboons; assay type: in vivo, baboon
Method: as §1
Intracavernous injection of papaverine (40 mg) or phenoxybenzamine (3 mg) which produced maximal penile length within 20 and 40 min were repeated one week later and prostaglandin A2 was given at the peak time of the turgidity.
as §2

**Q.** For `CCCCC[C@H](O)/C=C/[C@H]1C=CC(=O)[C@@H]1C/C=C\CCCC(=O)O` [AS-8, prostaglandin A2], which “times stronger than adrenaline in contracting human corpora cavernosa muscle” value ([1]; versus adrenaline) is on record?
**A.** 2.5 times

**Q.** What about the “times stronger than aramine in contracting human corpora cavernosa muscle” value ([1]; versus aramine) of the same compound?
**A.** 50 times

**Q.** What about the “times stronger than dopamine in contracting human corpora cavernosa muscle” value ([1]; versus dopamine) of the same compound?
**A.** 500 times

**Q.** And the “times stronger than noradrenaline in contracting human corpora cavernosa muscle” value ([1]; versus noradrenaline)?
**A.** 8.2 times

**Q.** What about the “fall in systemic blood pressure” value [2] of the same compound?
**A.** 8-16 mmHg

**Q.** What about the “prevention of intracavernous pressure increase to cavernous nerve stimulation” value [3] of the same compound?
**A.** prevents, in a dose-dependent manner

**Q.** What about the “cavernous pressure elevations to subsequent nerve stimulations” value ([3]; intracavernous AS-8, all the doses tested, Analysis of Variance) of the same compound?
**A.** significantly suppressed

**Q.** And the “Cavernous pressure (mmHg) recording” value ([3]; AS-8 1 μg intracavernous, 2 Min after, Control before 45.76 ± 1.46)?
**A.** 26.48 ± 4.62 mmHg

**Q.** What about the “Cavernous pressure (mmHg) recording” value ([3]; AS-8 1 μg intracavernous, 5 Min after, Control before 45.76 ± 1.46) of the same compound?
**A.** 22.48 ± 3.21 mmHg

**Q.** What about the “Cavernous pressure (mmHg) recording” value ([3]; AS-8 1 μg intracavernous, 10 Min after, Control before 45.76 ± 1.46) of the same compound?
**A.** 26.94 ± 4.77 mmHg

**Q.** And the “Cavernous pressure (mmHg) recording” value ([3]; AS-8 1 μg intracavernous, 20 Min after, Control before 45.76 ± 1.46)?
**A.** 24.42 ± 6.87 mmHg

**Q.** And the “Cavernous pressure (mmHg) recording” value ([3]; AS-8 1 μg intracavernous, 30 Min after, Control before 45.76 ± 1.46)?
**A.** 22.40 ± 5.34 mmHg

**Q.** What about the “Cavernous pressure (mmHg) recording” value ([3]; AS-8 1 μg intracavernous, 30 Sec after, Control before 45.76 ± 1.46) of the same compound?
**A.** 33.83 ± 3.09 mmHg

**Q.** And the “Cavernous pressure (mmHg) recording” value ([3]; AS-8 2 μg intracavernous, 2 Min after, Control before 40.60 ± 2.58)?
**A.** 22.29 ± 9.96 mmHg

**Q.** What about the “Cavernous pressure (mmHg) recording” value ([3]; AS-8 2 μg intracavernous, 5 Min after, Control before 40.60 ± 2.58) of the same compound?
**A.** 26.42 ± 4.42 mmHg

**Q.** What about the “Cavernous pressure (mmHg) recording” value ([3]; AS-8 2 μg intracavernous, 10 Min after, Control before 40.60 ± 2.58) of the same compound?
**A.** 24.49 ± 7.39 mmHg

**Q.** And the “Cavernous pressure (mmHg) recording” value ([3]; AS-8 2 μg intracavernous, 20 Min after, Control before 40.60 ± 2.58)?
**A.** 31.84 ± 5.54 mmHg

**Q.** What about the “Cavernous pressure (mmHg) recording” value ([3]; AS-8 2 μg intracavernous, 30 Min after, Control before 40.60 ± 2.58) of the same compound?
**A.** 29.62 ± 4.62 mmHg

**Q.** And the “Cavernous pressure (mmHg) recording” value ([3]; AS-8 2 μg intracavernous, 30 Sec after, Control before 40.60 ± 2.58)?
**A.** 35.29 ± 3.29 mmHg

**Q.** And the “Cavernous pressure (mmHg) recording” value ([3]; AS-8 4 μg intracavernous, 2 Min after, Control before 46.40 ± 1.59)?
**A.** 16.07 ± 1.00 mmHg

**Q.** And the “Cavernous pressure (mmHg) recording” value ([3]; AS-8 4 μg intracavernous, 5 Min after, Control before 46.40 ± 1.59)?
**A.** 14.90 ± 1.71 mmHg

**Q.** What about the “Cavernous pressure (mmHg) recording” value ([3]; AS-8 4 μg intracavernous, 10 Min after, Control before 46.40 ± 1.59) of the same compound?
**A.** 15.00 ± 6.71 mmHg

**Q.** And the “Cavernous pressure (mmHg) recording” value ([3]; AS-8 4 μg intracavernous, 20 Min after, Control before 46.40 ± 1.59)?
**A.** 18.30 ± 6.40 mmHg

**Q.** And the “Cavernous pressure (mmHg) recording” value ([3]; AS-8 4 μg intracavernous, 30 Min after, Control before 46.40 ± 1.59)?
**A.** 17.05 ± 5.86 mmHg

**Q.** What about the “Cavernous pressure (mmHg) recording” value ([3]; AS-8 4 μg intracavernous, 30 Sec after, Control before 46.40 ± 1.59) of the same compound?
**A.** 25.91 ± 5.57 mmHg

**Q.** What about the “mean systemic blood pressure change” value [4] of the same compound?
**A.** concurrent reduction in mean systemic blood pressure

**Q.** What about the “Mean Decrease in Length of Turgid Penis %” value ([5]; Patients (2), 150 μg intracavernous, 1 min after AS-8 injection) of the same compound?
**A.** 10%

**Q.** And the “Mean Decrease in Length of Turgid Penis %” value ([5]; Patients (2), 150 μg intracavernous, 5 min after AS-8 injection)?
**A.** 50%

**Q.** What about the “Mean Decrease in Length of Turgid Penis %” value ([5]; Patients (2), 150 μg intracavernous, 10 min after AS-8 injection) of the same compound?
**A.** 80%

**Q.** What about the “Mean Decrease in Length of Turgid Penis %” value ([5]; Patients (2), 150 μg intracavernous, 20 min after AS-8 injection) of the same compound?
**A.** 90%

**Q.** What about the “Mean Decrease in Length of Turgid Penis %” value ([5]; Patients (2), 150 μg intracavernous, 30 min after AS-8 injection) of the same compound?
**A.** 100%

**Q.** And the “Mean Decrease in Length of Turgid Penis %” value ([5]; Volunteers (3), 150 μg intracavernous, 1 min after AS-8 injection)?
**A.** 10%

**Q.** What about the “Mean Decrease in Length of Turgid Penis %” value ([5]; Volunteers (3), 150 μg intracavernous, 5 min after AS-8 injection) of the same compound?
**A.** 30%

**Q.** And the “Mean Decrease in Length of Turgid Penis %” value ([5]; Volunteers (3), 150 μg intracavernous, 10 min after AS-8 injection)?
**A.** 75%

**Q.** What about the “Mean Decrease in Length of Turgid Penis %” value ([5]; Volunteers (3), 150 μg intracavernous, 20 min after AS-8 injection) of the same compound?
**A.** 80%

**Q.** And the “Mean Decrease in Length of Turgid Penis %” value ([5]; Volunteers (3), 150 μg intracavernous, 30 min after AS-8 injection)?
**A.** 95%

**Q.** And the “subjects with maximal reduction in rigidity and penile length to the rugose state within 30 min after injection” value ([5]; patients and volunteers, erection induced by 60 mg papaverine for 4 hours or more, 150 μg intracavernous)?
**A.** four out of five subjects

**Q.** What about the “relapse of tumescence after first injection” value ([5]; volunteers, first injection 150 μg, corrected by additional injection of 100 μg) of the same compound?
**A.** In one volunteer, there was a relapse of tumescence within 60 min

**Q.** And the “Mean Change in Penile Length (% of Control)” value (shortened to “Mean Change … (% of Control)”) ([6]; papaverine 40 mg followed by AS-8 100 μg 20 min later, 1 min after injection)?
**A.** 32%

**Q.** What about the “Mean Change … (% of Control)” value ([6]; papaverine 40 mg followed by AS-8 100 μg 20 min later, 2 min after injection) of the same compound?
**A.** 38%

**Q.** And the “Mean Change … (% of Control)” value ([6]; papaverine 40 mg followed by AS-8 100 μg 20 min later, 5 min after injection)?
**A.** 65%

**Q.** And the “Mean Change … (% of Control)” value ([6]; papaverine 40 mg followed by AS-8 100 μg 20 min later, 10 min after injection)?
**A.** 130%

**Q.** And the “Mean Change … (% of Control)” value ([6]; papaverine 40 mg followed by AS-8 100 μg 20 min later, 20 min after injection)?
**A.** 142%

**Q.** What about the “Mean Change … (% of Control)” value ([6]; papaverine 40 mg followed by AS-8 100 μg 20 min later, 40 min after injection) of the same compound?
**A.** 15%

**Q.** What about the “Mean Change … (% of Control)” value ([6]; papaverine 40 mg followed by AS-8 100 μg 20 min later, 60 min after injection) of the same compound?
**A.** 0%

**Q.** And the “Mean Change … (% of Control)” value ([6]; papaverine 40 mg followed by AS-8 100 μg 20 min later, 80 min after injection)?
**A.** 0%

**Q.** And the “Mean Change … (% of Control)” value ([6]; papaverine 40 mg followed by AS-8 100 μg 20 min later, 100 min after injection)?
**A.** 0%

**Q.** What about the “Mean Change … (% of Control)” value ([6]; phenoxybenzamine 3 mg followed by AS-8 100 μg 20 min later, 1 min after injection) of the same compound?
**A.** 7%

**Q.** And the “Mean Change … (% of Control)” value ([6]; phenoxybenzamine 3 mg followed by AS-8 100 μg 20 min later, 2 min after injection)?
**A.** 15%

**Q.** And the “Mean Change … (% of Control)” value ([6]; phenoxybenzamine 3 mg followed by AS-8 100 μg 20 min later, 5 min after injection)?
**A.** 20%

**Q.** And the “Mean Change … (% of Control)” value ([6]; phenoxybenzamine 3 mg followed by AS-8 100 μg 20 min later, 10 min after injection)?
**A.** 38%

**Q.** And the “Mean Change … (% of Control)” value ([6]; phenoxybenzamine 3 mg followed by AS-8 100 μg 20 min later, 20 min after injection)?
**A.** 85%

**Q.** What about the “Mean Change … (% of Control)” value ([6]; phenoxybenzamine 3 mg followed by AS-8 100 μg 20 min later, 40 min after injection) of the same compound?
**A.** 10%

**Q.** And the “Mean Change … (% of Control)” value ([6]; phenoxybenzamine 3 mg followed by AS-8 100 μg 20 min later, 60 min after injection)?
**A.** 0%

**Q.** And the “Mean Change … (% of Control)” value ([6]; phenoxybenzamine 3 mg followed by AS-8 100 μg 20 min later, 80 min after injection)?
**A.** 0%

**Q.** What about the “Mean Change … (% of Control)” value ([6]; phenoxybenzamine 3 mg followed by AS-8 100 μg 20 min later, 100 min after injection) of the same compound?
**A.** 0%

**Q.** And the “time until penile size reduced to the original state of rugosity” value ([6]; prostaglandin A2 intracavernosally at maximum rigidity 20 min after papaverine or phenoxybenzamine)?
**A.** ≤ 40 min
